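Compound exposure: 48 hours, 5 concentrations, 96-well plates. GI50 = concentration required for 50% inhibition of growth. Definition used: TGI = concentration required for complete inhibition of growth.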
How the values were obtained:
Test in all cases: NCI anticancer screen, dose series, 48 h
HCC-2998 colon = tested on: HCC-2998 colon
T-47D breast = tested on: T-47D breast
OVCAR-8 ovarian = tested on: OVCAR-8 ovarian
BT-549 breast = tested on: BT-549 breast
OVCAR-4 ovarian = tested on: OVCAR-4 ovarian
HCT-15 colon = tested on: HCT-15 colon
KM12 colon = tested on: KM12 colon
HS 578T breast = tested on: HS 578T breast
UACC-257 melanoma = tested on: UACC-257 melanoma
MOLT-4 leukemia = tested on: MOLT-4 leukemia
786-0 renal = tested on: 786-0 renal
A549 NSCLC = tested on: A549 NSCLC
UACC-62 melanoma = tested on: UACC-62 melanoma
MALME-3M melanoma = tested on: MALME-3M melanoma
CCRF-CEM leukemia = tested on: CCRF-CEM leukemia
NCI-H23 lung = tested on: NCI-H23 lung
ACHN renal = tested on: ACHN renal
SK-MEL-2 melanoma = tested on: SK-MEL-2 melanoma
NCI-H460 lung = tested on: NCI-H460 lung
SNB-75 CNS = tested on: SNB-75 CNS
HT29 colon = tested on: HT29 colon
U251 CNS = tested on: U251 CNS
CAKI-1 renal = tested on: CAKI-1 renal
SR leukemia = tested on: SR leukemia
SK-MEL-28 melanoma = tested on: SK-MEL-28 melanoma
RPMI-8226 leukemia = tested on: RPMI-8226 leukemia
A498 renal = tested on: A498 renal
UO-31 renal = tested on: UO-31 renal
SK-MEL-5 melanoma = tested on: SK-MEL-5 melanoma
SW-620 colon = tested on: SW-620 colon
HOP-62 NSCLC = tested on: HOP-62 NSCLC
HOP-92 NSCLC = tested on: HOP-92 NSCLC
SF-295 CNS = tested on: SF-295 CNS
HL-60(TB) leukemia = tested on: HL-60(TB) leukemia
OVCAR-5 ovarian = tested on: OVCAR-5 ovarian
SK-OV-3 ovarian = tested on: SK-OV-3 ovarian
MDA-MB-231 breast = tested on: MDA-MB-231 breast
NCI-H522 lung = tested on: NCI-H522 lung
SNB-19 CNS = tested on: SNB-19 CNS
IGROV1 ovarian = tested on: IGROV1 ovarian
DU-145 prostate = tested on: DU-145 prostate
EKVX NSCLC = tested on: EKVX NSCLC
MCF7 breast = tested on: MCF7 breast
SN12C renal = tested on: SN12C renal
LOX IMVI melanoma = tested on: LOX IMVI melanoma
K-562 leukemia = tested on: K-562 leukemia
NCI-H226 lung = tested on: NCI-H226 lung
M14 melanoma = tested on: M14 melanoma
SF-268 CNS = tested on: SF-268 CNS
HCT-116 colon = tested on: HCT-116 colon
PC-3 prostate = tested on: PC-3 prostate
SF-539 CNS = tested on: SF-539 CNS
NCI/ADR-RES ovarian = tested on: NCI/ADR-RES ovarian
OVCAR-3 ovarian = tested on: OVCAR-3 ovarian
RXF 393 renal = tested on: RXF 393 renal
COLO 205 colon = tested on: COLO 205 colon
MDA-MB-435 = tested on: MDA-MB-435
TK-10 renal = tested on: TK-10 renal

CN(C)c1ccc(/C=C\C2=[N+](C)c3ccccc3C2(C)C)cc1
GI50 (HCC-2998 colon): 1220 nM | TGI (HCC-2998 colon): 12900 nM | GI50 (T-47D breast): 634 nM | TGI (T-47D breast): > 33200 nM | GI50 (OVCAR-8 ovarian): 614 nM | TGI (OVCAR-8 ovarian): > 41100 nM | GI50 (BT-549 breast): 423 nM | TGI (BT-549 breast): 11200 nM | GI50 (OVCAR-4 ovarian): 981 nM | TGI (OVCAR-4 ovarian): > 59400 nM | GI50 (HCT-15 colon): 4180 nM | TGI (HCT-15 colon): > 69700 nM | GI50 (KM12 colon): 369 nM | TGI (KM12 colon): 4460 nM | GI50 (HS 578T breast): 305 nM | TGI (HS 578T breast): 8680 nM | GI50 (UACC-257 melanoma): 1500 nM | TGI (UACC-257 melanoma): > 31200 nM | TGI (MOLT-4 leukemia): > 100000 nM | GI50 (786-0 renal): 2480 nM | TGI (786-0 renal): > 41200 nM | GI50 (A549 NSCLC): 1060 nM | TGI (A549 NSCLC): > 62000 nM | GI50 (UACC-62 melanoma): 1490 nM | TGI (UACC-62 melanoma): 19900 nM | GI50 (MALME-3M melanoma): 456 nM | TGI (MALME-3M melanoma): 16500 nM | GI50 (CCRF-CEM leukemia): 453 nM | TGI (CCRF-CEM leukemia): > 100000 nM | GI50 (NCI-H23 lung): 299 nM | TGI (NCI-H23 lung): 23700 nM | GI50 (ACHN renal): 1750 nM | TGI (ACHN renal): > 36700 nM | GI50 (SK-MEL-2 melanoma): 1310 nM | TGI (SK-MEL-2 melanoma): 43200 nM | GI50 (NCI-H460 lung): 466 nM | TGI (NCI-H460 lung): 7160 nM | GI50 (SNB-75 CNS): 709 nM | TGI (SNB-75 CNS): 19900 nM | GI50 (HT29 colon): 309 nM | GI50 (U251 CNS): 233 nM | TGI (U251 CNS): 17400 nM | GI50 (CAKI-1 renal): 1820 nM | TGI (CAKI-1 renal): 20600 nM | GI50 (SR leukemia): 28500 nM | TGI (SR leukemia): > 100000 nM | GI50 (SK-MEL-28 melanoma): 510 nM | TGI (SK-MEL-28 melanoma): 21500 nM | GI50 (RPMI-8226 leukemia): 176 nM | TGI (RPMI-8226 leukemia): > 53500 nM | GI50 (A498 renal): 4380 nM | TGI (A498 renal): 28200 nM | GI50 (UO-31 renal): 3740 nM | TGI (UO-31 renal): > 100000 nM | GI50 (SK-MEL-5 melanoma): 715 nM | TGI (SK-MEL-5 melanoma): 3000 nM | GI50 (SW-620 colon): 399 nM | TGI (SW-620 colon): 19100 nM | GI50 (HOP-62 NSCLC): 842 nM | TGI (HOP-62 NSCLC): 21600 nM | GI50 (HOP-92 NSCLC): 890 nM | TGI (HOP-92 NSCLC): > 22800 nM | GI50 (SF-295 CNS): 994 nM | TGI (SF-295 CNS): > 23600 nM | GI50 (HL-60(TB) leukemia): 295 nM | TGI (HL-60(TB) leukemia): > 100000 nM | GI50 (OVCAR-5 ovarian): 3180 nM | TGI (OVCAR-5 ovarian): 43800 nM | GI50 (SK-OV-3 ovarian): 696 nM | TGI (SK-OV-3 ovarian): > 24400 nM | GI50 (MDA-MB-231 breast): 2120 nM | TGI (MDA-MB-231 breast): 18800 nM | GI50 (NCI-H522 lung): 703 nM | TGI (NCI-H522 lung): > 67400 nM | GI50 (SNB-19 CNS): 775 nM | TGI (SNB-19 CNS): 38100 nM | GI50 (IGROV1 ovarian): 458 nM | TGI (IGROV1 ovarian): > 50100 nM | GI50 (DU-145 prostate): 473 nM | TGI (DU-145 prostate): 27000 nM | GI50 (EKVX NSCLC): 1290 nM | TGI (EKVX NSCLC): > 100000 nM | GI50 (MCF7 breast): 455 nM | TGI (MCF7 breast): 30700 nM | GI50 (SN12C renal): 351 nM | TGI (SN12C renal): 14600 nM | GI50 (LOX IMVI melanoma): 356 nM | TGI (LOX IMVI melanoma): 14600 nM | GI50 (K-562 leukemia): 1770 nM | TGI (K-562 leukemia): > 100000 nM | GI50 (NCI-H226 lung): 2680 nM | TGI (NCI-H226 lung): > 55200 nM | GI50 (M14 melanoma): 1910 nM | TGI (M14 melanoma): > 38200 nM | GI50 (SF-268 CNS): 654 nM | TGI (SF-268 CNS): 34000 nM | GI50 (HCT-116 colon): 320 nM | TGI (HCT-116 colon): > 32100 nM | GI50 (PC-3 prostate): 195 nM | GI50 (SF-539 CNS): 1120 nM | TGI (SF-539 CNS): 16700 nM | GI50 (NCI/ADR-RES ovarian): 10600 nM | TGI (NCI/ADR-RES ovarian): > 61600 nM | GI50 (OVCAR-3 ovarian): 342 nM | TGI (OVCAR-3 ovarian): 4380 nM | GI50 (RXF 393 renal): 1450 nM | TGI (RXF 393 renal): 27700 nM | GI50 (COLO 205 colon): 354 nM | TGI (COLO 205 colon): 1650 nM | GI50 (MDA-MB-435): 422 nM | TGI (MDA-MB-435): 9350 nM | GI50 (TK-10 renal): 1250 nM | TGI (TK-10 renal): > 52400 nM
